# Test results: PubChem BioAssay (NCI)
#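 GI50: concentration for 50% inhibition of growth. TGI is the concentration that stops growth completely.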
# Tests used:
# Experiment in all cases: NCI anticancer screen, dose series, 384-well format
# NCI-H522 lung = tested on: NCI-H522 lung
# MCF7 breast = tested on: MCF7 breast
# MDA-MB-231 breast = tested on: MDA-MB-231 breast
# 786-0 renal = tested on: 786-0 renal
# MDA-MB-435 melanoma = tested on: MDA-MB-435 melanoma
# SR leukemia = tested on: SR leukemia
# NCI/ADR-RES ovarian = tested on: NCI/ADR-RES ovarian
# HOP-62 NSCLC = tested on: HOP-62 NSCLC
# HS 578T breast = tested on: HS 578T breast
# MDA-MB-468 breast = tested on: MDA-MB-468 breast
# BT-549 breast = tested on: BT-549 breast
# DU-145 prostate = tested on: DU-145 prostate
# SK-OV-3 ovarian = tested on: SK-OV-3 ovarian
smiles,measurement,setting,value
CC(=O)OC1C(C)OC(Oc2c(-c3ccc(O)cc3)oc3cc(O)cc(O)c3c2=O)C(O)C1OC(C)=O (stereo unspecified),GI50,NCI-H522 lung,20.5 µM
same,TGI,NCI-H522 lung,46.2 µM
same,GI50,MCF7 breast,37.2 µM
same,TGI,MCF7 breast,> 100 µM
same,GI50,MDA-MB-231 breast,25.7 µM
same,TGI,MDA-MB-231 breast,74.1 µM
same,GI50,786-0 renal,62 µM
same,TGI,786-0 renal,> 100 µM
same,GI50,MDA-MB-435 melanoma,40.8 µM
same,TGI,MDA-MB-435 melanoma,> 100 µM
same,GI50,SR leukemia,17.7 µM
same,TGI,SR leukemia,34.2 µM
same,GI50,NCI/ADR-RES ovarian,> 100 µM
same,TGI,NCI/ADR-RES ovarian,> 100 µM
same,GI50,HOP-62 NSCLC,20.8 µM
same,TGI,HOP-62 NSCLC,49 µM
same,GI50,HS 578T breast,21.5 µM
same,TGI,HS 578T breast,62.4 µM
same,GI50,MDA-MB-468 breast,19.6 µM
same,TGI,MDA-MB-468 breast,38.7 µM
same,GI50,BT-549 breast,19.4 µM
same,TGI,BT-549 breast,44.7 µM
same,GI50,DU-145 prostate,27.6 µM
same,TGI,DU-145 prostate,77.1 µM
same,GI50,SK-OV-3 ovarian,46.3 µM
same,TGI,SK-OV-3 ovarian,> 100 µM
